Measurements from PubChem BioAssay (NCI).
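Cells were grown in 96-well plates and exposed to each compound for 48 hours at five concentrations; endpoints were interpolated linearly between bracketing concentrations, or set to the highest concentration if not reached. TGI is the concentration that stops growth completely.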

Key:
Test in all cases: NCI tumour cell line growth inhibition, 48 h
MCF7 breast = tested on: MCF7 breast
HCT-15 colon = tested on: HCT-15 colon
MOLT-4 leukemia = tested on: MOLT-4 leukemia
SK-MEL-5 melanoma = tested on: SK-MEL-5 melanoma
MALME-3M melanoma = tested on: MALME-3M melanoma
MDA-N = tested on: MDA-N
OVCAR-4 ovarian = tested on: OVCAR-4 ovarian
SR leukemia = tested on: SR leukemia
OVCAR-5 ovarian = tested on: OVCAR-5 ovarian
NCI-H460 lung = tested on: NCI-H460 lung
M14 melanoma = tested on: M14 melanoma
OVCAR-8 ovarian = tested on: OVCAR-8 ovarian
MDA-MB-435 = tested on: MDA-MB-435
UACC-257 melanoma = tested on: UACC-257 melanoma
A549 NSCLC = tested on: A549 NSCLC
RPMI-8226 leukemia = tested on: RPMI-8226 leukemia
DU-145 prostate = tested on: DU-145 prostate
HOP-92 NSCLC = tested on: HOP-92 NSCLC
SW-620 colon = tested on: SW-620 colon
NCI-H522 lung = tested on: NCI-H522 lung
NCI-H23 lung = tested on: NCI-H23 lung
SK-MEL-28 melanoma = tested on: SK-MEL-28 melanoma
SN12C renal = tested on: SN12C renal
HL-60(TB) leukemia = tested on: HL-60(TB) leukemia
SF-268 CNS = tested on: SF-268 CNS
U251 CNS = tested on: U251 CNS
SNB-19 CNS = tested on: SNB-19 CNS
T-47D breast = tested on: T-47D breast
PC-3 prostate = tested on: PC-3 prostate
RXF 393 renal = tested on: RXF 393 renal
HT29 colon = tested on: HT29 colon
K-562 leukemia = tested on: K-562 leukemia
HCT-116 colon = tested on: HCT-116 colon
UO-31 renal = tested on: UO-31 renal
CCRF-CEM leukemia = tested on: CCRF-CEM leukemia
ACHN renal = tested on: ACHN renal
HCC-2998 colon = tested on: HCC-2998 colon
EKVX NSCLC = tested on: EKVX NSCLC
SNB-75 CNS = tested on: SNB-75 CNS
CAKI-1 renal = tested on: CAKI-1 renal
TK-10 renal = tested on: TK-10 renal
786-0 renal = tested on: 786-0 renal
MDA-MB-231 breast = tested on: MDA-MB-231 breast
HOP-62 NSCLC = tested on: HOP-62 NSCLC
LOX IMVI melanoma = tested on: LOX IMVI melanoma
SF-295 CNS = tested on: SF-295 CNS
OVCAR-3 ovarian = tested on: OVCAR-3 ovarian
HS 578T breast = tested on: HS 578T breast
A498 renal = tested on: A498 renal
SF-539 CNS = tested on: SF-539 CNS
IGROV1 ovarian = tested on: IGROV1 ovarian
NCI-H226 lung = tested on: NCI-H226 lung
NCI/ADR-RES ovarian = tested on: NCI/ADR-RES ovarian
KM12 colon = tested on: KM12 colon
BT-549 breast = tested on: BT-549 breast
COLO 205 colon = tested on: COLO 205 colon
SK-MEL-2 melanoma = tested on: SK-MEL-2 melanoma
UACC-62 melanoma = tested on: UACC-62 melanoma
SK-OV-3 ovarian = tested on: SK-OV-3 ovarian

CCOC(=O)C1(N)CC1
TGI (MCF7 breast): > 100 µM
TGI (HCT-15 colon): > 100 µM
TGI (MOLT-4 leukemia): > 100 µM
TGI (SK-MEL-5 melanoma): > 100 µM
TGI (MALME-3M melanoma): > 100 µM
TGI (MDA-N): > 100 µM
TGI (OVCAR-4 ovarian): > 100 µM
TGI (SR leukemia): > 100 µM
TGI (OVCAR-5 ovarian): > 100 µM
TGI (NCI-H460 lung): > 100 µM
TGI (M14 melanoma): > 100 µM
TGI (OVCAR-8 ovarian): > 100 µM
TGI (MDA-MB-435): > 100 µM
TGI (UACC-257 melanoma): > 100 µM
TGI (A549 NSCLC): > 100 µM
TGI (RPMI-8226 leukemia): > 100 µM
TGI (DU-145 prostate): > 100 µM
TGI (HOP-92 NSCLC): > 100 µM
TGI (SW-620 colon): > 100 µM
TGI (NCI-H522 lung): > 100 µM
TGI (NCI-H23 lung): > 100 µM
TGI (SK-MEL-28 melanoma): > 100 µM
TGI (SN12C renal): > 100 µM
TGI (HL-60(TB) leukemia): > 100 µM
TGI (SF-268 CNS): > 100 µM
TGI (U251 CNS): > 100 µM
TGI (SNB-19 CNS): > 100 µM
TGI (T-47D breast): > 100 µM
TGI (PC-3 prostate): > 100 µM
TGI (RXF 393 renal): > 100 µM
TGI (HT29 colon): > 100 µM
TGI (K-562 leukemia): > 100 µM
TGI (HCT-116 colon): > 100 µM
TGI (UO-31 renal): > 100 µM
TGI (CCRF-CEM leukemia): > 100 µM
TGI (ACHN renal): > 100 µM
TGI (HCC-2998 colon): > 100 µM
TGI (EKVX NSCLC): > 100 µM
TGI (SNB-75 CNS): > 100 µM
TGI (CAKI-1 renal): > 100 µM
TGI (TK-10 renal): > 100 µM
TGI (786-0 renal): > 100 µM
TGI (MDA-MB-231 breast): > 100 µM
TGI (HOP-62 NSCLC): > 100 µM
TGI (LOX IMVI melanoma): > 100 µM
TGI (SF-295 CNS): > 100 µM
TGI (OVCAR-3 ovarian): > 100 µM
TGI (HS 578T breast): > 100 µM
TGI (A498 renal): > 100 µM
TGI (SF-539 CNS): > 100 µM
TGI (IGROV1 ovarian): > 100 µM
TGI (NCI-H226 lung): > 100 µM
TGI (NCI/ADR-RES ovarian): > 100 µM
TGI (KM12 colon): > 100 µM

COc1cc(C2c3cc4c(cc3OC(NCCO)C2C)OCO4)cc(OC)c1O (configuration not stated)
TGI (MCF7 breast): > 100 µM
TGI (HCT-15 colon): 46.9 µM
TGI (SK-MEL-5 melanoma): 56.5 µM
TGI (BT-549 breast): > 100 µM
TGI (MALME-3M melanoma): > 100 µM
TGI (MDA-N): 4.56 µM
TGI (OVCAR-4 ovarian): > 100 µM
TGI (OVCAR-5 ovarian): > 100 µM
TGI (M14 melanoma): > 100 µM
TGI (OVCAR-8 ovarian): > 100 µM
TGI (MDA-MB-435): 6.34 µM
TGI (A549 NSCLC): > 100 µM
TGI (RPMI-8226 leukemia): 19 µM
TGI (HOP-92 NSCLC): > 100 µM
TGI (SW-620 colon): > 100 µM
TGI (NCI-H23 lung): > 100 µM
TGI (SK-MEL-28 melanoma): > 100 µM
TGI (SN12C renal): > 100 µM
TGI (SF-268 CNS): > 100 µM
TGI (U251 CNS): 87.8 µM
TGI (SNB-19 CNS): > 100 µM
TGI (T-47D breast): > 100 µM
TGI (PC-3 prostate): > 100 µM
TGI (RXF 393 renal): > 100 µM
TGI (HT29 colon): > 100 µM
TGI (COLO 205 colon): 84.2 µM
TGI (HCT-116 colon): > 100 µM
TGI (UO-31 renal): > 100 µM
TGI (HCC-2998 colon): 21.8 µM
TGI (SNB-75 CNS): 77.3 µM
TGI (CAKI-1 renal): > 100 µM
TGI (TK-10 renal): > 100 µM
TGI (786-0 renal): > 100 µM
TGI (MDA-MB-231 breast): > 100 µM
TGI (SF-295 CNS): > 100 µM
TGI (OVCAR-3 ovarian): > 100 µM
TGI (SK-MEL-2 melanoma): 36.9 µM
TGI (SF-539 CNS): 42.2 µM
TGI (IGROV1 ovarian): > 100 µM
TGI (UACC-62 melanoma): > 100 µM
TGI (NCI-H226 lung): > 100 µM
TGI (KM12 colon): > 100 µM

CC(=Nc1ccc(Cl)c(Cl)c1)c1ccncc1
TGI (MOLT-4 leukemia): > 100 µM
TGI (BT-549 breast): > 100 µM
TGI (MDA-N): > 100 µM
TGI (OVCAR-4 ovarian): > 100 µM
TGI (SK-OV-3 ovarian): > 100 µM
TGI (NCI-H460 lung): > 100 µM
TGI (M14 melanoma): > 100 µM
TGI (OVCAR-8 ovarian): > 100 µM
TGI (HOP-92 NSCLC): > 100 µM
TGI (SW-620 colon): > 100 µM
TGI (NCI-H522 lung): > 100 µM
TGI (NCI-H23 lung): > 100 µM
TGI (SK-MEL-28 melanoma): > 100 µM
TGI (SN12C renal): > 100 µM
TGI (SF-268 CNS): > 100 µM
TGI (U251 CNS): > 100 µM
TGI (SNB-19 CNS): > 100 µM
TGI (PC-3 prostate): > 100 µM
TGI (RXF 393 renal): > 100 µM
TGI (HT29 colon): > 100 µM
TGI (K-562 leukemia): > 100 µM
TGI (COLO 205 colon): > 100 µM
TGI (HCT-116 colon): > 100 µM
TGI (CCRF-CEM leukemia): > 100 µM
TGI (SNB-75 CNS): > 100 µM
TGI (TK-10 renal): > 100 µM
TGI (786-0 renal): > 100 µM
TGI (MDA-MB-231 breast): > 100 µM
TGI (HOP-62 NSCLC): > 100 µM
TGI (LOX IMVI melanoma): > 100 µM
TGI (SF-295 CNS): > 100 µM
TGI (OVCAR-3 ovarian): > 100 µM
TGI (HS 578T breast): > 100 µM
TGI (UACC-62 melanoma): > 100 µM
TGI (NCI-H226 lung): > 100 µM
TGI (NCI/ADR-RES ovarian): > 100 µM
TGI (KM12 colon): > 100 µM

NC(=O)CCC(NC(=O)c1c2ccccc2nc2ccccc12)C(=O)O (configuration not stated)
TGI (MCF7 breast): > 100 µM
TGI (HCT-15 colon): > 100 µM
TGI (MOLT-4 leukemia): > 100 µM
TGI (SK-MEL-5 melanoma): > 100 µM
TGI (BT-549 breast): > 100 µM
TGI (MALME-3M melanoma): > 100 µM
TGI (MDA-N): > 100 µM
TGI (OVCAR-4 ovarian): > 100 µM
TGI (OVCAR-5 ovarian): > 100 µM
TGI (SK-OV-3 ovarian): > 100 µM
TGI (NCI-H460 lung): > 100 µM
TGI (M14 melanoma): > 100 µM
TGI (OVCAR-8 ovarian): > 100 µM
TGI (MDA-MB-435): > 100 µM
TGI (UACC-257 melanoma): > 100 µM
TGI (A549 NSCLC): > 100 µM
TGI (RPMI-8226 leukemia): > 100 µM
TGI (DU-145 prostate): > 100 µM
TGI (HOP-92 NSCLC): > 100 µM
TGI (SW-620 colon): > 100 µM
TGI (NCI-H522 lung): > 100 µM
TGI (NCI-H23 lung): > 100 µM
TGI (SK-MEL-28 melanoma): > 100 µM
TGI (SN12C renal): > 100 µM
TGI (SF-268 CNS): > 100 µM
TGI (U251 CNS): > 100 µM
TGI (SNB-19 CNS): > 100 µM
TGI (PC-3 prostate): > 100 µM
TGI (HT29 colon): > 100 µM
TGI (K-562 leukemia): > 100 µM
TGI (COLO 205 colon): > 100 µM
TGI (HCT-116 colon): > 100 µM
TGI (UO-31 renal): > 100 µM
TGI (CCRF-CEM leukemia): > 100 µM
TGI (ACHN renal): > 100 µM
TGI (HCC-2998 colon): > 100 µM
TGI (EKVX NSCLC): > 100 µM
TGI (SNB-75 CNS): > 100 µM
TGI (CAKI-1 renal): > 100 µM
TGI (TK-10 renal): > 100 µM
TGI (786-0 renal): > 100 µM
TGI (MDA-MB-231 breast): > 100 µM
TGI (HOP-62 NSCLC): > 100 µM
TGI (LOX IMVI melanoma): > 100 µM
TGI (SF-295 CNS): > 100 µM
TGI (OVCAR-3 ovarian): > 100 µM
TGI (A498 renal): > 100 µM
TGI (SK-MEL-2 melanoma): > 100 µM
TGI (SF-539 CNS): > 100 µM
TGI (IGROV1 ovarian): > 100 µM
TGI (UACC-62 melanoma): > 100 µM
TGI (NCI-H226 lung): > 100 µM
TGI (NCI/ADR-RES ovarian): > 100 µM
TGI (KM12 colon): > 100 µM
